ChEMBL document CHEMBL3885861, “Open TG-GATES”

Organism: Rattus norvegicus
Assay: Open TG-GATES - Regimen: Single
Type: toxicity, organism-based, Sprague-Dawley
Parameters: regimen Single, gender Male, age 6 weeks
Details: in vivo, po, 50 mg/kg, route gavage, dose level Low; for APTT / Bas / Eos / Fbg / Hb / Ht / Lym / MCH / MCHC / MCV / Mono / Neu / PT / Plat / RBC / Ret / WBC: tissue Blood; for KIDNEY_L / KIDNEY_R / KIDNEY_TOTAL: tissue Kidney; for LIVER: tissue Liver; for A/G / ALP / ALT / AST / BUN / CRE / Ca / Cl / DBIL / GLC / IP / K / LDH / Na / PL / RALB / TBIL / TC / TG / TP / gamma-GTP: tissue Plasma

CN1C(=O)CCS(=O)(=O)C1c1ccc(Cl)cc1 (configuration not stated) [CHLORMEZANONE]
TERMINAL_BW (3 h): 228.4 g
APTT (3 h): 16.7 s
Bas (3 h): 0%
Eos (3 h): 1%
Fbg (3 h): 319.2 mg/dL
Hb (3 h): 13.2 g/dL
Ht (3 h): 39.3%
Lym (3 h): 73.8%
MCH (3 h): 21.6 pg
MCHC (3 h): 33.6%
MCV (3 h): 64.3 fL
Mono (3 h): 4%
Neu (3 h): 20.6%
PT (3 h): 13 s
Plat (3 h): 111.8 x10_4/uL
RBC (3 h): 611.6 x10_4/ul
Ret (3 h): 9.4%
WBC (3 h): 84.7 x10_2/uL
KIDNEY_L (3 h): 0.9 g
KIDNEY_R (3 h): 0.9 g
KIDNEY_TOTAL (3 h): 1.9 g
LIVER (3 h): 10.4 g
A/G (3 h): 0.9
ALP (3 h): 1492 IU/L
ALT (3 h): 52.6 IU/L
AST (3 h): 80.2 IU/L
BUN (3 h): 8.8 mg/dL
CRE (3 h): 0.2 mg/dL
Ca (3 h): 11.6 mg/dL
Cl (3 h): 105.2 meq/L
DBIL (3 h): 0.018 mg/dL
GLC (3 h): 187 mg/dL
IP (3 h): 9.6 mg/dL
K (3 h): 4 meq/L
LDH (3 h): 60.2 IU/L
Na (3 h): 141.6 meq/L
PL (3 h): 155 mg/dL
RALB (3 h): 2.7 g/dL
TBIL (3 h): 0.046 mg/dL
TC (3 h): 83.6 mg/dL
TG (3 h): 75.4 mg/dL
TP (3 h): 5.7 g/dL
gamma-GTP (3 h): 1 IU/L
TERMINAL_BW (6 h): 227.2 g
APTT (6 h): 15 s
Bas (6 h): 0%
Eos (6 h): 0.8%
Fbg (6 h): 321.2 mg/dL
Hb (6 h): 13.8 g/dL
Ht (6 h): 40.9%
Lym (6 h): 76.8%
MCH (6 h): 21.6 pg
MCHC (6 h): 33.7%
MCV (6 h): 64.2 fL
Mono (6 h): 3.4%
Neu (6 h): 18.2%
PT (6 h): 13.2 s
Plat (6 h): 115.1 x10_4/uL
RBC (6 h): 637.2 x10_4/ul
Ret (6 h): 7.3%
WBC (6 h): 83.9 x10_2/uL
KIDNEY_L (6 h): 0.9 g
KIDNEY_R (6 h): 1 g
KIDNEY_TOTAL (6 h): 1.9 g
LIVER (6 h): 9.5 g
A/G (6 h): 0.9
ALP (6 h): 1829.6 IU/L
ALT (6 h): 38.6 IU/L
AST (6 h): 71.4 IU/L
BUN (6 h): 8.8 mg/dL
CRE (6 h): 0.2 mg/dL
Ca (6 h): 11.6 mg/dL
Cl (6 h): 107 meq/L
DBIL (6 h): 0.016 mg/dL
GLC (6 h): 189.8 mg/dL
IP (6 h): 10.3 mg/dL
K (6 h): 4.1 meq/L
LDH (6 h): 56.8 IU/L
Na (6 h): 143.2 meq/L
PL (6 h): 153 mg/dL
RALB (6 h): 2.7 g/dL
TBIL (6 h): 0.038 mg/dL
TC (6 h): 78 mg/dL
TG (6 h): 68.4 mg/dL
TP (6 h): 5.7 g/dL
gamma-GTP (6 h): 1.2 IU/L
TERMINAL_BW (9 h): 227.8 g
APTT (9 h): 14.1 s
Bas (9 h): 0%
Eos (9 h): 0.8%
Fbg (9 h): 351 mg/dL
Hb (9 h): 13.4 g/dL
Ht (9 h): 39.3%
Lym (9 h): 77.8%
MCH (9 h): 22.3 pg
MCHC (9 h): 34.1%
MCV (9 h): 65.5 fL
Mono (9 h): 2.2%
Neu (9 h): 18%
PT (9 h): 13.5 s
Plat (9 h): 121.2 x10_4/uL
RBC (9 h): 601.6 x10_4/ul
Ret (9 h): 8%
WBC (9 h): 76.9 x10_2/uL
KIDNEY_L (9 h): 1 g
KIDNEY_R (9 h): 0.9 g
KIDNEY_TOTAL (9 h): 1.9 g
LIVER (9 h): 9.2 g
A/G (9 h): 0.9
ALP (9 h): 1623.2 IU/L
ALT (9 h): 34.4 IU/L
AST (9 h): 71.6 IU/L
BUN (9 h): 9.4 mg/dL
CRE (9 h): 0.2 mg/dL
Ca (9 h): 11.2 mg/dL
Cl (9 h): 106.4 meq/L
DBIL (9 h): 0.02 mg/dL
GLC (9 h): 191.4 mg/dL
IP (9 h): 11.9 mg/dL
K (9 h): 4 meq/L
LDH (9 h): 57.6 IU/L
Na (9 h): 143.8 meq/L
PL (9 h): 121.4 mg/dL
RALB (9 h): 2.6 g/dL
TBIL (9 h): 0.038 mg/dL
TC (9 h): 67.2 mg/dL
TG (9 h): 50.4 mg/dL
TP (9 h): 5.5 g/dL
gamma-GTP (9 h): 1 IU/L
TERMINAL_BW (24 h): 234.7 g
APTT (24 h): 16.1 s
Bas (24 h): 0%
Eos (24 h): 0.8%
Fbg (24 h): 278.2 mg/dL
Hb (24 h): 13.6 g/dL
Ht (24 h): 39.7%
Lym (24 h): 75%
MCH (24 h): 21.7 pg
MCHC (24 h): 34.4%
MCV (24 h): 63.3 fL
Mono (24 h): 3.4%
Neu (24 h): 20.2%
PT (24 h): 13 s
Plat (24 h): 113.6 x10_4/uL
RBC (24 h): 626.8 x10_4/ul
Ret (24 h): 7.6%
WBC (24 h): 72.4 x10_2/uL
KIDNEY_L (24 h): 1.1 g
KIDNEY_R (24 h): 1 g
KIDNEY_TOTAL (24 h): 2.1 g
LIVER (24 h): 11.3 g
A/G (24 h): 0.9
ALP (24 h): 1615.6 IU/L
ALT (24 h): 45 IU/L
AST (24 h): 77.4 IU/L
BUN (24 h): 14.8 mg/dL
CRE (24 h): 0.2 mg/dL
Ca (24 h): 11.1 mg/dL
Cl (24 h): 106.2 meq/L
DBIL (24 h): 0.02 mg/dL
GLC (24 h): 182.2 mg/dL
IP (24 h): 7.4 mg/dL
K (24 h): 4.2 meq/L
LDH (24 h): 83 IU/L
Na (24 h): 142 meq/L
PL (24 h): 137.8 mg/dL
RALB (24 h): 2.6 g/dL
TBIL (24 h): 0.024 mg/dL
TC (24 h): 80.4 mg/dL
TG (24 h): 92.4 mg/dL
TP (24 h): 5.6 g/dL
gamma-GTP (24 h): 1.2 IU/L
